From patent US20230085307A1, “PYRIDAZINONE COMPOUND AND HERBICIDE” (NISSAN CHEMICAL CORPORATION, priority 2019, published 2023)

Key:
barnyard grass [1] = experiment: Test Example 3: herbicidal effect by foliage application, Wagner pot (Table 18, symbol H); type: in vivo, barnyard grass (Echinochloa crus-galli); conditions: 320 g/ha
Procedure, shortened: (§1)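 Plants were sown in alluvial soil held under 0.1–0.5 cm standing water and grown 14 days in a greenhouse at 25–30 °C. An emulsifiable formulation, water-diluted to the set dose, was then sprayed onto the foliage, and effects were scored three weeks later using previously defined criteria.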

Chinese sprangletop = experiment: Test Example 3: herbicidal effect by foliage application, Wagner pot (Table 18, symbol D); type: in vivo, chinese sprangletop (Leptochloa chinensis); conditions: 320 g/ha
Procedure, shortened: as §1

rice flat sedge = experiment: Test Example 3: herbicidal effect by foliage application, Wagner pot (Table 18, symbol E); type: in vivo, rice flat sedge (Cyperus iria); conditions: 320 g/ha
Procedure, shortened: as §1

southern crabgrass [2] = experiment: Test Example 4: herbicidal effect by soil treatment (Table 19, symbol F); type: in vivo, southern crabgrass (Digitaria ciliaris); conditions: AAH 320 g/ha
Procedure, shortened: (§2)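 Soil-surface application: an emulsion agent diluted with water to the predetermined dose is sprayed uniformly over seeds lying under roughly 1.5 cm of sterilized diluvial soil. Boxes stay in a greenhouse at 25° C. to 30° C. Three weeks later, each species is graded on previously defined criteria.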

green foxtail [3] = experiment: Test Example 4: herbicidal effect by soil treatment (Table 19, symbol G); type: in vivo, green foxtail (Setaria viridis); conditions: AAH 320 g/ha
Procedure, shortened: as §2

barnyard grass [4] = experiment: Test Example 4: herbicidal effect by soil treatment (Table 19, symbol H); type: in vivo, barnyard grass (Echinochloa crus-galli); conditions: AAH 320 g/ha
Procedure, shortened: as §2

wild oat [5] = experiment: Test Example 4: herbicidal effect by soil treatment (Table 19, symbol I); type: in vivo, wild oat (Avena fatua); conditions: AAH 320 g/ha
Procedure, shortened: as §2

blackgrass [6] = experiment: Test Example 4: herbicidal effect by soil treatment (Table 19, symbol J); type: in vivo, blackgrass (Alopecurus myosuroides); conditions: AAH 320 g/ha
Procedure, shortened: as §2

Italian ryegrass [7] = experiment: Test Example 4: herbicidal effect by soil treatment (Table 19, symbol K); type: in vivo, Italian ryegrass (Lolium multiflorum); conditions: AAH 320 g/ha
Procedure, shortened: as §2

windgrass [8] = experiment: Test Example 4: herbicidal effect by soil treatment (Table 19, symbol L); type: in vivo, windgrass (Apera spica-venti); conditions: AAH 320 g/ha
Procedure, shortened: as §2

velvetleaf [9] = experiment: Test Example 4: herbicidal effect by soil treatment (Table 19, symbol M); type: in vivo, velvetleaf (Abutilon theophrasti); conditions: AAH 320 g/ha
Procedure, shortened: as §2

redroot pigweed [10] = experiment: Test Example 4: herbicidal effect by soil treatment (Table 19, symbol N); type: in vivo, redroot pigweed (Amaranthus retroflexus); conditions: AAH 320 g/ha
Procedure, shortened: as §2

lambsquarters [11] = experiment: Test Example 4: herbicidal effect by soil treatment (Table 19, symbol O); type: in vivo, lambsquarters (Chenopodium album); conditions: AAH 320 g/ha
Procedure, shortened: as §2

chickweed [12] = experiment: Test Example 4: herbicidal effect by soil treatment (Table 19, symbol P); type: in vivo, common chickweed (Stellaria media); conditions: AAH 320 g/ha
Procedure, shortened: as §2

persian speedwell [13] = experiment: Test Example 4: herbicidal effect by soil treatment (Table 19, symbol R); type: in vivo, Persian speedwell (Veronica persica); conditions: AAH 320 g/ha
Procedure, shortened: as §2

southern crabgrass [14] = experiment: Test Example 5: herbicidal effect by foliage application, plastic box (Table 20, symbol F); type: in vivo, southern crabgrass (Digitaria ciliaris); conditions: foliage application, AAH 320 g/ha, three weeks after application
Procedure, shortened: (§3)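 Sow seeds spot-wise in sterilized diluvial soil; cover with ~1.5 cm soil. Grow 14 days in greenhouse, 25° C. to 30° C. Spray foliage with emulsion diluted to predetermined amount. Rate effect after 3 weeks.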

green foxtail [15] = experiment: Test Example 5: herbicidal effect by foliage application, plastic box (Table 20, symbol G); type: in vivo, green foxtail (Setaria viridis); conditions: foliage application, AAH 320 g/ha, three weeks after application
Procedure, shortened: as §3

barnyard grass [16] = experiment: Test Example 5: herbicidal effect by foliage application, plastic box (Table 20, symbol H); type: in vivo, barnyard grass (Echinochloa crus-galli); conditions: foliage application, AAH 320 g/ha, three weeks after application
Procedure, shortened: as §3

wild oat [17] = experiment: Test Example 5: herbicidal effect by foliage application, plastic box (Table 20, symbol I); type: in vivo, wild oat (Avena fatua); conditions: foliage application, AAH 320 g/ha, three weeks after application
Procedure, shortened: as §3

blackgrass [18] = experiment: Test Example 5: herbicidal effect by foliage application, plastic box (Table 20, symbol J); type: in vivo, blackgrass (Alopecurus myosuroides); conditions: foliage application, AAH 320 g/ha, three weeks after application
Procedure, shortened: as §3

Italian ryegrass [19] = experiment: Test Example 5: herbicidal effect by foliage application, plastic box (Table 20, symbol K); type: in vivo, Italian ryegrass (Lolium multiflorum); conditions: foliage application, AAH 320 g/ha, three weeks after application
Procedure, shortened: as §3

windgrass [20] = experiment: Test Example 5: herbicidal effect by foliage application, plastic box (Table 20, symbol L); type: in vivo, windgrass (Apera spica-venti); conditions: foliage application, AAH 320 g/ha, three weeks after application
Procedure, shortened: as §3

velvetleaf [21] = experiment: Test Example 5: herbicidal effect by foliage application, plastic box (Table 20, symbol M); type: in vivo, velvetleaf (Abutilon theophrasti); conditions: foliage application, AAH 320 g/ha, three weeks after application
Procedure, shortened: as §3

redroot pigweed [22] = experiment: Test Example 5: herbicidal effect by foliage application, plastic box (Table 20, symbol N); type: in vivo, redroot pigweed (Amaranthus retroflexus); conditions: foliage application, AAH 320 g/ha, three weeks after application
Procedure, shortened: as §3

lambsquarters [23] = experiment: Test Example 5: herbicidal effect by foliage application, plastic box (Table 20, symbol O); type: in vivo, lambsquarters (Chenopodium album); conditions: foliage application, AAH 320 g/ha, three weeks after application
Procedure, shortened: as §3

chickweed [24] = experiment: Test Example 5: herbicidal effect by foliage application, plastic box (Table 20, symbol P); type: in vivo, common chickweed (Stellaria media); conditions: foliage application, AAH 320 g/ha, three weeks after application
Procedure, shortened: as §3

persian speedwell [25] = experiment: Test Example 5: herbicidal effect by foliage application, plastic box (Table 20, symbol R); type: in vivo, Persian speedwell (Veronica persica); conditions: foliage application, AAH 320 g/ha, three weeks after application
Procedure, shortened: as §3

| Compound | herbicidal effect on H (barnyard grass), rating 0-5 (barnyard grass [1]) | herbicidal effect on D (Chinese sprangletop), rating 0-5 (Chinese sprangletop) | herbicidal effect on E (rice flat sedge), rating 0-5 (rice flat sedge) | F: southern crabgrass, herbicidal effect rating (southern crabgrass [2]) | G: green foxtail, herbicidal effect rating (green foxtail [3]) | H: barnyard grass, herbicidal effect rating (barnyard grass [4]) | I: wild oat, herbicidal effect rating (wild oat [5]) | J: blackgrass, herbicidal effect rating (blackgrass [6]) | K: Italian ryegrass, herbicidal effect rating (Italian ryegrass [7]) | L: windgrass, herbicidal effect rating (windgrass [8]) | M: velvetleaf, herbicidal effect rating (velvetleaf [9]) | N: redroot pigweed, herbicidal effect rating (redroot pigweed [10]) | O: lambsquarters, herbicidal effect rating (lambsquarters [11]) | P: chickweed, herbicidal effect rating (chickweed [12]) | R: persian speedwell, herbicidal effect rating (persian speedwell [13]) | F: southern crabgrass, herbicidal effect (southern crabgrass [14]) | G: green foxtail, herbicidal effect (green foxtail [15]) | H: barnyard grass, herbicidal effect (barnyard grass [16]) | I: wild oat, herbicidal effect (wild oat [17]) | J: blackgrass, herbicidal effect (blackgrass [18]) | further results |
| --- | --- | --- | --- | --- | --- | --- | --- | --- | --- | --- | --- | --- | --- | --- | --- | --- | --- | --- | --- | --- | --- |
| Cc1nn(C)c(=O)c(-c2c(-c3ccc(OCC#N)cc3)sc3ccccc23)c1O [1-137] | 3 (Herbicidal rate of 40% or more and less than 70%) | 3 (Herbicidal rate of 40% or more and less than 70%) | 5 (Herbicidal rate of 90% or more (almost completely withered)) | 0 (Herbicidal rate of 5% or less (almost no effect)) | 2 (Herbicidal rate of 20% or more and less than 40%) | 0 (Herbicidal rate of 5% or less (almost no effect)) | 0 (Herbicidal rate of 5% or less (almost no effect)) | 0 (Herbicidal rate of 5% or less (almost no effect)) | 0 (Herbicidal rate of 5% or less (almost no effect)) | 0 (Herbicidal rate of 5% or less (almost no effect)) | 0 (Herbicidal rate of 5% or less (almost no effect)) | 3 (Herbicidal rate of 40% or more and less than 70%) | 2 (Herbicidal rate of 20% or more and less than 40%) | 0 (Herbicidal rate of 5% or less (almost no effect)) | 3 (Herbicidal rate of 40% or more and less than 70%) | 0 (Herbicidal rate of 5% or less (almost no effect)) | 0 (Herbicidal rate of 5% or less (almost no effect)) | 1 (Herbicidal rate of 5% or more and less than 20%) | 0 (Herbicidal rate of 5% or less (almost no effect)) | 0 (Herbicidal rate of 5% or less (almost no effect)) | K: Italian ryegrass, herbicidal effect (Italian ryegrass [19]): 0 (Herbicidal rate of 5% or less (almost no effect)); L: windgrass, herbicidal effect (windgrass [20]): 0 (Herbicidal rate of 5% or less (almost no effect)); M: velvetleaf, herbicidal effect (velvetleaf [21]): 3 (Herbicidal rate of 40% or more and less than 70%); N: redroot pigweed, herbicidal effect (redroot pigweed [22]): 0 (Herbicidal rate of 5% or less (almost no effect)); O: lambsquarters, herbicidal effect (lambsquarters [23]): 3 (Herbicidal rate of 40% or more and less than 70%); P: chickweed, herbicidal effect (chickweed [24]): 3 (Herbicidal rate of 40% or more and less than 70%); R: persian speedwell, herbicidal effect (persian speedwell [25]): 4 (Herbicidal rate of 70% or more and less than 90%) |
| C=CCOc1ccc(-c2sc3ccccc3c2-c2c(O)c(C)nn(C)c2=O)cc1 [1-139] | 5 (Herbicidal rate of 90% or more (almost completely withered)) | 0 (Herbicidal rate of 5% or less (almost no effect)) | 5 (Herbicidal rate of 90% or more (almost completely withered)) | 0 (Herbicidal rate of 5% or less (almost no effect)) | 3 (Herbicidal rate of 40% or more and less than 70%) | 4 (Herbicidal rate of 70% or more and less than 90%) | 0 (Herbicidal rate of 5% or less (almost no effect)) | 0 (Herbicidal rate of 5% or less (almost no effect)) | 5 (Herbicidal rate of 90% or more (almost completely withered)) | 3 (Herbicidal rate of 40% or more and less than 70%) | 2 (Herbicidal rate of 20% or more and less than 40%) | 5 (Herbicidal rate of 90% or more (almost completely withered)) | 4 (Herbicidal rate of 70% or more and less than 90%) | 5 (Herbicidal rate of 90% or more (almost completely withered)) | 5 (Herbicidal rate of 90% or more (almost completely withered)) | 5 (Herbicidal rate of 90% or more (almost completely withered)) | 5 (Herbicidal rate of 90% or more (almost completely withered)) | 5 (Herbicidal rate of 90% or more (almost completely withered)) | 4 (Herbicidal rate of 70% or more and less than 90%) | 4 (Herbicidal rate of 70% or more and less than 90%) | K: Italian ryegrass, herbicidal effect (Italian ryegrass [19]): 5 (Herbicidal rate of 90% or more (almost completely withered)); L: windgrass, herbicidal effect (windgrass [20]): 5 (Herbicidal rate of 90% or more (almost completely withered)); M: velvetleaf, herbicidal effect (velvetleaf [21]): 4 (Herbicidal rate of 70% or more and less than 90%); N: redroot pigweed, herbicidal effect (redroot pigweed [22]): 5 (Herbicidal rate of 90% or more (almost completely withered)); O: lambsquarters, herbicidal effect (lambsquarters [23]): 4 (Herbicidal rate of 70% or more and less than 90%); P: chickweed, herbicidal effect (chickweed [24]): 5 (Herbicidal rate of 90% or more (almost completely withered)); R: persian speedwell, herbicidal effect (persian speedwell [25]): 5 (Herbicidal rate of 90% or more (almost completely withered)) |
